Source: article PMC8322648, “Brevibacillin 2V Exerts Its Bactericidal Activity via Binding to Lipid II and Permeabilizing Cellular Membranes” (Frontiers in Microbiology, 2021)
pKd: −log10 of the molar value. No end group written: not given here.

Tests used:
[1] = test system: S. aureus ATCC15975 (MRSA); assay: Time-killing assay; assay type: cell-based, Staphylococcus aureus; settings: MHB, 37°C; for time to complete killing of all cells: 10 × MIC (nisin 40 μg/ml; brevibacillins 20 μg/ml), ≈ 5 × 10^6 cells per ml, 220 rpm, triplicate
Method: This assay was performed according to a previously described procedure ([Ling et al., 2015]; [Zhao et al., 2020b]). An overnight culture of cells [S. aureus ATCC15975 (MRSA)] was diluted 50-fold in MHB and incubated at 37°C with aeration at 220 rpm. Bacteria were grown to an OD600 of 0.5, and then, the concentration of cells was adjusted to ≈ 5 × 10^6 cells per ml. Bacteria were then challenged with nisin (40 μg/ml), brevibacillin (20 μg/ml), brevibacillin V (20 μg/ml), brevibacillin I (20 μg/ml), or brevibacillin 2V (20 μg/ml) in culture tubes at 37°C and 220 rpm (peptides at 10 × MIC, a desirable concentration at the site of infection). Bacteria not treated with peptides were used as negative controls. At desired time points, 200 μl aliquots were taken, centrifuged at 8,000 g for 2 min, and resuspended in 200 μl of MHB. 10-fold serially diluted samples were plated on MHA plates. After incubated at 37°C overnight, colonies were counted and c.f.u. per ml was calculated. Each experiment was performed in triplicate.

[2] = test system: S. aureus ATCC15975 (MRSA) membrane; assay: DiSC3(5) membrane potential assay; assay type: cell-based, Staphylococcus aureus; settings: 2 × MIC
Method: Staphylococcus aureus ATCC15975 (MRSA) was grown to an OD600 of 0.8. The culture was pelleted at 5,000 × g for 5 min and washed three times in 10 mm HEPES with 10 mm glucose (pH 7.2). The cell density was normalized to an OD600 of 0.2, loaded with 2 μm DiSC3(5) dye, and incubated for 20 min in the dark for probe fluorescence to stabilize. After incubation, KCl was added to the cell suspension at a final concentration of 100 mm. Subsequently, the cell suspension was added to a 96-well microplate and incubation for 5 min; after that, antibiotics were added at a final concentration of 2 × MIC. Fluorescence was monitored for 25 min, with the antibiotics added after ~20 s. The excitation and emission wavelengths on the fluorescence spectrometer were adjusted to 622 nm and 670 nm, respectively. Representative examples from three technical replicates are shown.

[3] = test system: Staphylococcus aureus (MRSA); settings: Staphylococcus aureus (MRSA); Figure 1; ref Zhao et al., 2021; cited from earlier work
Source text: Figure 1 Structures of brevibacillins. The red color indicates the more hydrophobic amino acid residues of brevibacillin V, brevibacillin and brevibacillin I relative to brevibacillin 2V. MIC, the minimum inhibitory concentration against Staphylococcus aureus (MRSA). HC50, the 50% human blood cell hemolysis concentration. CC50, the 50% cell (HepG2) toxicity concentration. […] LUVs-based CF leakage assay is widely used in the studies of the antibiotic mode of action ([Hasper et al., 2004]; [Smith et al., 2008]; [Slootweg et al., 2015]; [Bakhtiary et al., 2017]). Disruption of the vesicle membrane by certain compounds releases CF from the LUVs into the extra-vesicular milieu resulting in increased fluorescence signal (Figure ...

HepG2 = settings: Figure 1, ref Zhao et al., 2021; cited from earlier work
Source text: (§1) A vast number of bacterial non-ribosomally produced peptides (NRPs) have shown strong antimicrobial activity against pathogenic bacteria ([Cochrane et al., 2014]; [Cociancich et al., 2015]; [Hamamoto et al., 2015]; [Ling et al., 2015]; [Süssmuth and Mainz, 2017]). Lipo-tridecapeptides, a class of NRPs, show strong antimicrobial activity against Gram-positive pathogens, including antibiotic-resistant Staphylococcus aureus and Enterococcus spp. ([Barsby et al., 2001], [2006]; [Yang et al., 2016]; [Wu et al., 2019]; [Zhao et al., 2021]). However, many of these lipo-tridecapeptides have shown high ... || Figure 1 Structures of brevibacillins. The red color indicates the more hydrophobic amino acid residues of brevibacillin V, brevibacillin and brevibacillin I relative to brevibacillin 2V. MIC, the minimum inhibitory concentration against Staphylococcus aureus (MRSA). HC50, the 50% human blood cell hemolysis concentration. CC50, the 50% cell (HepG2) toxicity concentration.

human red blood cells = settings: Figure 1, ref Zhao et al., 2021; cited from earlier work
Source text: as §1

[4] = ref Zhao et al., 2021; cited from earlier work
[5] = ref Varney et al., 2013; Bakhtiary et al., 2017; cited from earlier work
Method: To investigate the role of Lipid II-binding ability of brevibacillins in their membrane disruption capacity, CF leakage assays were performed using LUVs composed of DOPC with or without Lipid II and containing CF at self-quenching concentrations. LUVs-based CF leakage assay is widely used in the studies of the antibiotic mode of action ([Hasper et al., 2004]; [Smith et al., 2008]; [Slootweg et al., 2015]; [Bakhtiary et al., 2017]). Disruption of the vesicle membrane by certain compounds releases CF from the LUVs into the extra-vesicular milieu resulting in increased fluorescence signal (Figure ...

[6] = test system: S. aureus ATCC15975 (MRSA); assay: Spot-on-lawn assay with Lipid II; assay type: cell-based, Staphylococcus aureus; settings: brevibacillins 0.68 μg, nisin and daptomycin 1.36 μg; Lipid II 300 μM, 4 μl, at edge of halo; MHA, 37°C overnight
Method: An overnight cultured S. aureus ATCC15975 (MRSA) was added to 0.6% MHA (w/v, temperature 42°C) at a final concentration of 0.1% (v/v), and then, the mixture was poured to the plates 10 ml for each. The binding of peptide and Lipid II ([Hasper et al., 2006]) was further evaluated by spotting of purified Lipid II (300 μm, 4 μl) to the edge of inhibition halo of antibiotics (brevibacillins, 0.68 μg; nisin and daptomycin, 1.36 μg). Briefly, antibiotics were loaded to the agar plate. After the antibiotic solution drops had dried, purified Lipid II was spotted to the edge (identified by a pre-experiment) of inhibition halo of antibiotics ([Wang et al., 2020]). After the Lipid II solution drops had dried, the plates were transferred to a 37°C incubator for overnight incubation.

[7] = membrane-embedded Lipid II; ref Islam et al., 2012; ‘t Hart et al., 2016; Bakhtiary et al., 2017; Chiorean et al., 2020; cited from earlier work
Method: After confirmation of the fact that brevibacillins bind to Lipid II, an ITC assay was performed to determine the binding affinity of brevibacillins for Lipid II. For this, 2 mol % Lipid II was incorporated into DOPC-based LUVs. […] Nisin, teixobactin, nukacin ISK-1, and lacticin 3147 ...

[8] = test system: S. aureus ATCC15975 (MRSA); assay: Fluorescence microscopy, LIVE/DEAD BacLight (SYTO 9/propidium iodide); assay type: cell-based, Staphylococcus aureus; settings: 2 × MIC (brevibacillins 4 μg/ml, nisin 8 μg/ml), 15 min, room temperature
Method: (§2) Staphylococcus aureus ATCC15975 (MRSA) was grown to an OD600 of 0.8. The culture was pelleted at 5,000 × g for 5 min and washed three times in 10 mm HEPES with 10 mm glucose (pH 7.2). After normalization of the cell density to an OD600 of 0.2 in 10 mm HEPES with 10 mm glucose (pH 7.2), a 2-fold MIC concentration of brevibacillins (4 μg/ml) or nisin (8 μg/ml) was added. At the same time, SYTO® 9 and propidium iodide (LIVE/DEAD Baclight Bacterial Viability Kit, Invitrogen) were added to the above cell suspensions. After incubation at room temperature for 15 min, peptides were removed and washed three times with 10 mm HEPES with 10 mm glucose (pH 7.2). Then, the cell suspensions were loaded on 1.5% agarose pads and analyzed by DeltaVision Elite microscope (Applied Precision; [Zhao and Kuipers, 2021]).

[9] = Pyrene-labeled Lipid II fluorescence quenching assay; assay type: binding; settings: 50 μM DOPC LUVs with 0.5 mol % pyrene-labeled Lipid II, 20°C, ex 350 nm
Method: The effects of antibiotics on pyrene-labeled Lipid II were measured using 50 μm DOPC-based large unilamellar vesicles (LUVs) containing 0.5 mol % pyrene-labeled Lipid II ([Breukink et al., 2003]). Briefly, the LUVs were added to a quartz cuvette and titrated with nisin, brevibacillin, or brevibacillin 2V with stirring at 20°C. The fluorescence spectra were recorded between 360 and 600 nm (λex350 nm) using a Cary Eclipse Fluorescence Spectrophotometer (Agilent, United States).

S. aureus (MRSA) = assay: Membrane permeability assay, concentration series (fluorescence microscopy); assay type: cell-based, Staphylococcus aureus; settings: 100 nM and 400 nM, 15 min; ratio of membrane permeabilized cells; three independent experiments; p < 0.05
Method: as §2
GraphPad Prism 7.0 was used to fit the data of time-killing assay, DiSC3(5) assay, fluorescence quenching assay, ITC assay, and CF Leakage assay in Figures 3–7. The fluorescence images (ratio of membrane permeabilized cells) were quantified by the software Adobe Photoshop 2021. The Kd values of brevibacillins to Lipid II were calculated using the Nano Analyze Software (Waters LLC). The statistical significance of the data was assessed using Duncan’s multiple range test with the software SPSS Statistics 26; values of p < 0.05 were considered to be statistically significant.
Figure 7 Brevibacillins disrupt membrane permeability without the need for Lipid II binding. (A), Cartoon schematic of the assay used to assess membrane permeability disruption of brevibacillins. (B), CF releases (%) vs. time graph showing the effects of adding brevibacillins to DOPC-LUVs with 0.1% Lipid II; peptide concentrations were 100 nm; a, when peptides were added; and b, when 20% Triton X-100 added. (C), CF releases (%) vs. time graph showing the effects of adding brevibacillins to LUVs of pure DOPC; peptide concentrations were 100 nm; a, when peptides were added; and b, when 20% Triton X-100 was added. (D), fluorescence microscopic images of S. aureus (MRSA) after have been treated by a series concentrations of brevibacillins and nisin for 15 min. (E), the ratio of membrane permeabilized cells that was quantified by Adobe Photoshop 2021; the data are representative of three independent experiments.
To investigate the in vivo membrane disruption capacity of brevibacillin and brevibacillin 2V, a membrane permeability assay was performed with a series of concentrations of antibiotics. Nisin was used as a control.

[10] = 31P solid-state NMR of Lipid II in liposomes; assay type: binding; settings: DOPC vesicles with 2 mol % Lys-Lipid II, 20 mM HEPES, 100 mM NaCl, pH 8; 200 nmol antibiotic, 100 nmol Lipid II; 500 MHz, 10 kHz MAS, 270 K
Method: Multi-lamellar vesicles of DOPC doped with 2 mol % Lys-Lipid II in buffer (20 mm HEPES, 100 mm NaCl, and pH = 8) were collected by centrifugation (60,000 × g) and loaded into 3.2 mm ssNMR rotors. For 3.2 mm rotors, we used 200 nmol of antibiotic with 100 nmol of Lipid II. The 1D ^31P ssNMR experiments were performed at 500 MHz (^1H frequency) magnetic field using 10 kHz magic angle spinning (MAS) at 270 K sample temperature.

In the case of Brevibacillin V, the “killing kinetics / capacity, in words” value ([1]; 10 × MIC (brevibacillins 20 μg/ml; nisin 40 μg/ml)) was “intermediate killing capacity”, the “time to complete killing of all cells” value [1] was no more than 2 h and the “speed of membrane permeabilization” value [2] was “appeared to act faster than brevibacillin 2V and the well-known pore-forming antibiotic nisin”. For the same substance, the “rank order of membrane disruption capacity” value ([2]; correlates with calculated hydrophobicity) was “brevibacillin I > brevibacillin > brevibacillin V > brevibacillin 2V”, the MIC [3] was 2 mg/L and the “CC50, 50% cell (HepG2) toxicity concentration” value (HepG2) was 9.89 ± 0.67 mg/L. For the same substance, the “HC50, 50% human blood cell hemolysis concentration” value (human red blood cells) was 73.1 ± 1.4 mg/L and the “rank order of calculated hydrophobicity” value [4] was “brevibacillin I > brevibacillin > brevibacillin V > brevibacillin 2V”.

For HNP-1: Lipid II-targeting antimicrobial, the “membrane disruption in Lipid II containing and Lipid II lacking LUVs” value [5] is listed as “cause membrane disruption in both Lipid II containing LUVs and Lipid II lacking LUVs”.

With daptomycin the “antimicrobial activity upon addition of purified Lipid II” value [6] was “kept its antimicrobial activity against S. aureus (MRSA)”.

In the case of lacticin 3147, the pKd [7] is given as 6.04 and the “membrane disruption in Lipid II containing and Lipid II lacking LUVs” value [5] is given as “cause membrane disruption in both Lipid II containing LUVs and Lipid II lacking LUVs”.

In the case of “nisin: well-known Lipid II-targeting antibiotic, pore-forming, used as control (ITSISLCTPGCKTGALMGCNMKTATCHCSIHVSK; not fully specified (some residues, bridges); cysteine pairing not given here; UniProt P13068 24-57, looked up) [reference compound]”, the “time to complete killing of all cells” value [1] was no more than 4 h, the “membrane integrity (SYTO 9 / propidium iodide staining)” value [8] was “turned red, indicative of a compromised membrane” and the “antimicrobial activity upon addition of purified Lipid II” value [6] was “diminished”. The “excimer fluorescence (about 490 nm)” value [9] was “appearance of a fluorescence peak around 490 nm, indicating the formation of excimers”, the pyrene monomer fluorescence [9] was “clearly induced a decrease of pyrene monomer fluorescence” and the “membrane permeabilization capacity, comparison” value (S. aureus (MRSA)) was “significantly (p < 0.05) higher membrane permeabilization capacity than the brevibacillins”. The pKd [7] was 7.84.

With vancomycin [reference compound] the “31P signals of Lipid II pyrophosphate moiety” value [10] was “no changes observed for the Lipid II pyrophosphate signals”.
